Here are results for 3 molecules from paper PMC5813964, “The enzymatic processing of α-dystroglycan by MMP-2 is controlled by two anchoring sites distinct from the active site” (PLoS ONE, 2018).

One experiment has as its target T1, whole MMP-2 (Homo sapiens, UniProt P08253).
T1 construct: purchased R&D System, London, UK
T1 sequence (P08253 110-660): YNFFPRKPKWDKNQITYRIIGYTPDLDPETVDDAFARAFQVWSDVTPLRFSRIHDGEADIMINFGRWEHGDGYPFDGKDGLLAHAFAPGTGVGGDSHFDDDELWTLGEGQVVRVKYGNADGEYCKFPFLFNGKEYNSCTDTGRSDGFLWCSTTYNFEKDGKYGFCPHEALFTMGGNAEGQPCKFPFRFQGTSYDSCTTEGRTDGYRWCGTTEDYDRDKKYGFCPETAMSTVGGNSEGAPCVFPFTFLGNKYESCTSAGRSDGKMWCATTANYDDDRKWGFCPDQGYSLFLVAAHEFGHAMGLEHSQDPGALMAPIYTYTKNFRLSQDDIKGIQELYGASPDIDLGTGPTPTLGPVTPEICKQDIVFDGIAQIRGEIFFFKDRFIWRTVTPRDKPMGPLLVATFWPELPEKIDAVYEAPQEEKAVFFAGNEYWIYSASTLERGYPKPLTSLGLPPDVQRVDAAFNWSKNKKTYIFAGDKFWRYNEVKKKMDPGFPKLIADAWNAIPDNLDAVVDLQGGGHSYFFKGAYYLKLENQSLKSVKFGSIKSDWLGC
Put plainly: MMP-2 proteolysis of fluorogenic peptide, modulation by α-DG C-term peptide. Type of experiment: biochemical. The conditions noted are these: global fit Eqs 1-3. The procedure: (§1) Human MMP-2 proenzyme 2 was activated by incubating 0.1 mg/ml progelatinase solution with 0.25 mM aminophenyl mercuric acid (Sigma, St. Louis, MO, USA) at 37°C for 30 minutes. Whereas human recombinant cdMMP-2 human was dissolved in a solution of 50 mM Tris/HCl (pH 7.2), 0.1M NaCl and 10 mMCaCl. […] All measurements were performed at 37°C using a solution of 50 mM Tris–HCl, 0.1 M NaCl, 10 mM CaCl2 and 0.05% Brij 35 buffered at pH 7.3.
(§2) Different concentrations of the α-DG peptide (i.e., final concentration range spanning between 0 μM and 4 μM) were incubated with 0.07 μM active MMP-2 for 30 min at 37°C to allow the interaction to occur. In the case of the cdMMP2 the kinetics were performed employing 0.06 μM cdMMP-2 at different concentration of α-DG (613–651) peptide in the range 0–2 μM. Different concentrations of MCA fluorogenic peptide (i.e: from […]) were then added to this solution. The enzymatic reaction was recorded for 30 minutes at 37°C. The initial velocities were derived from the slopes within the first 15 minutes, which is the time period during which the rate is constant and less than 10% of the substrate was degraded. This ensured a steady-state condition for the first cleavage step, and it was a prerequisite for the subsequent analysis steps.
(§3) This behavior, which envisages the presence of (at least) two binding sites for the α-DG (613–651) peptide on the catalytic domain of MMP-2, can be kinetically and thermodynamically described by the scheme reported on Fig 5; where, ^0kcat and ^0Km are the observed catalytic parameters in the absence of the peptide, Ka and Kb are the peptide dissociation constants to the free enzyme for the two binding sites, α is the interaction parameter, which quantifies the effect on Km of the α-DG(613–651) peptide binding to the first binding site (α > 1 indicates a negative effect with a decreased affinity, α < 1 a positive effect and α = 1 no effect), β is the interaction parameter which estimates the effect on kcat of the binding of α-DG(613–651) peptide to the first binding site (β > 1 indicates a positive effect with an increased rate constant, β < 1 a negative effect and β = 1 no effect).
(§4) Data reported in Figs 4 and 5 have been analyzed according to the following equation: [E0]/v=^obsKm/^obskcat⋅1/[S]+1/^obskcat (Eq 1) where [E0] is the total enzyme concentration, ν is the observed velocity (expressed as mol/s), [S] is the substrate concentration, ^obskcat and ^obsKm are the observed catalytic parameters, namely ^obskcat=^0kcat⋅(Ka⋅α+β⋅[Pept])/(Ka⋅α+[Pept]) (Eq 2) and ^obsKm=^0Km⋅α⋅(Ka⋅Kb+Kb⋅[Pept]+[Pept]^2)/Kb⋅(Ka⋅α+[Pept]) (Eq 3) where ^0kcat and ^0Km are the catalytic paramenters in the absence of peptide and all other symbols have the same meaning as described above.

The target of experiment [1] is T2, cdMMP-2 (isolated catalytic domain of MMP-2) (Homo sapiens, UniProt P08253).
T2 construct: the catalytic domain of MMP-2 (without the hemopexin-like domain) retains the capability of degrading; purchased Biomol International
Put plainly: cdMMP-2 proteolysis of fluorogenic peptide, modulation by α-DG C-term peptide. Type of experiment: biochemical. The conditions noted are these: pH 7.3, 37°C, global fit Eqs 1-3. The procedure:
as §1, §2, §3, §4

The target of experiment [2] is human recombinant catalytic domain of MMP-2 (cdMMP-2) (human).
The target in experiment [3] is human recombinant MMP-2 (whole enzyme, activated) (human).
Experiment [4] deals with human recombinant catalytic domain of MMP-2 (cdMMP-2) (human). Briefly: enzyme inhibition kinetics (fluorogenic substrate); peptide (0-4 μM with 0.07 μM active MMP-2; 0-2 μM with 0.06 μM cdMMP-2) incubated with the enzyme 30 min at 37°C, then MCA-Pro-Leu-Gly-Leu-DPA-Ala-Arg-NH2 added; initial velocities, global fit of Lineweaver-Burk data to a scheme with two peptide binding sites (Eqs 1-3); 50 mM Tris-HCl, 0.1 M NaCl, 10 mM CaCl2, 0.05% Brij 35, pH 7.3, 37°C.

The target of experiment [5] is human recombinant MMP-2 (whole enzyme, activated) (human). The description is as above.

No end group written: not given here.

Take “VGDPALVLNDIHKKIALVKKLAFAFGDRNCSTITLQNIT [α-DG (613–651) peptide]”: the Kd at whole MMP-2 (whole MMP-2, fluorogenic substrate, peptide 0-4 μM, 30 min preincubation at 37°C, pH 7.3, read-out: Ka (peptide dissociation constant to the free enzyme, first, high affinity non-competitive site)) stood at 35 nM; in experiment [1] (cd-MMP-2, fluorogenic substrate, peptide 0–2 μM, read-out: Ka (peptide dissociation constant to the free enzyme, first, high affinity non-competitive site)) it was 35 nM. The Kb at whole MMP-2 (whole MMP-2, fluorogenic substrate, peptide 0-4 μM, 30 min preincubation at 37°C, pH 7.3, read-out: Kb (peptide dissociation constant to the free enzyme, second, lower affinity competitive active site)) came to 210 nM; in experiment [1] (cd-MMP-2, fluorogenic substrate, peptide 0–2 μM, read-out: Kb (peptide dissociation constant to the free enzyme, second, lower affinity competitive active site)), 210 nM.

With “MCA-Pro-Leu-Gly-Leu-DPA-Ala-Arg-NH2 [fluorogenic substrate, reference compound]”, the “^0kcat” value at whole MMP-2 (whole MMP-2, absence of peptide, MCA-Pro-Leu-Gly-Leu-DPA-Ala-Arg-NH2 substrate, pH 7.3, 37°C, 50 mM Tris–HCl, 0.1 M NaCl, 10 mM CaCl2, 0.05% Brij 35, λexc 325 nm, λem 398 nm) came out at 29.6 ± 4.5 s⁻¹; in experiment [1] (cd-MMP-2, absence of peptide), 26.1 ± 4.1 s⁻¹. Further, the “^0Km” value on whole MMP-2 (whole MMP-2, absence of peptide, pH 7.3, 37°C) is listed as 1.5(±0.3)×10^−6 M; in experiment [1] (cd-MMP-2, absence of peptide) it was 1.9(±0.5)×10^−6 M.

In the case of VGDPALVLNDIHKKIALVKKLAFAFGDRNCSTITLQNIT [human α-DG (613–651) peptide], the interaction parameter β (effect of peptide at the first site on kcat for the fluorogenic substrate) in experiment [2] was 0.32; in experiment [3], 0.27. The interaction parameter α (effect of peptide at the first site on Km of the fluorogenic substrate) in experiment [3] is 1.7. The Ka (dissociation constant, first site, higher affinity, non-competitive) in experiment [4] and in experiment [5] was 35 nM each time. Further, the Kb (dissociation constant, second site, lower affinity, competitive) in experiment [4] and in experiment [5] was 210 nM throughout.
